The results in this text go back to PMC13126677 (Journal of Medicinal Chemistry, 2026).

Data set [1] has as its system procoagulant activity of E. romani venom. The note with it: read-out: Coagulation assay EC50 E. romani; 10 ng E. romani venom, citrated bovine plasma; mean of n ≥ 3, range in brackets.
Protocol: (§1) This assay consists of preincubating venom (or venom vehicle control) at a species-specific dose with the compound of interest (or compound vehicle control), then adding citrated bovine plasma to the wells and activating the clotting cascade with calcium chloride. […] Compounds of interest were stamped onto 384-well plates at a volume of 0.5 μL and a concentration of 10 mM in 100% DMSO. Positive and negative control wells were stamped with 0.5 μL of 100% DMSO. To the test wells and the venom-only positive control wells, 10 μL of venom diluted to 1 μg/mL (E. romani) or 10 μg/mL (B. jararaca) in PBS was added, giving a final well amount of 10 ng (E. romani) or 100 ng (B. jararaca) per well. In the no venom negative control wells, 10 μL of PBS was added. The plates were then sealed, span briefly in a Platefuge and incubated at 37 °C for 25 min to allow venom-inhibitor interaction. While the plates were incubating, sufficient citrated bovine plasma (S0260, BioWest) to allow 20 μL/well was centrifuged at 3120 RCF for 5 min to remove any residual cellular debris and the supernatant was collected. The 384-well plates were removed from the incubator for 5 min to allow acclimation to room temperature, then 20 μL/well of 20 mM CaCl2 was added and immediately followed by the addition of 20 μL/well of centrifuged citrated bovine plasma, both via a Multidrop Combi reagent dispenser (5840330, Thermo Fisher Scientific). The plates were then read kinetically using an absorbance protocol on a CLARIOStar microplate reader at 595 nm for 60 min. […] Dose response plates were conducted identically and the % inhibition values at each dose were used to draw EC50 curves to estimate the EC50 value of each compound tested. All coagulation experiments were repeated independently a minimum of three times.
A further data set concerns E. romani venom. The note with it: venom 10 μg/egg, drug 1 μg/egg; 1 h postvenom images; in words.
For data set [2], the system named is SVMP activity of Bothrops jararaca venom. The conditions noted are these: read-out: Inhibition of SVMP enzymatic activity EC50 BJA; B. jararaca venom; mean of n ≥ 3, range in brackets.
Protocol: (§2) Throughout our medicinal chemistry campaign, compounds were evaluated for their ability to inhibit enzymatic SVMP toxin activity in vitro using a previously described fluorescent-based substrate cleavage assay against five medically important viper venoms, namely Echis romani (Roman’s carpet viper, West Africa), Crotalus atrox (Western diamondback rattlesnake, North America), Calloselasma rhodostoma (Malayan pit viper, South East Asia), Bothrops jararaca (jararaca, South America) and Bitis arietans (puff adder, Africa).
(§3) Compounds of interest were stamped onto 384-well plates at a volume of 0.91 μL at a concentration of 1 mM in 100% DMSO (D2650, Sigma-Aldrich). Positive and negative control wells were stamped with 0.91 μL of 100% DMSO. To the test wells and the venom-only positive control wells, 15 μL of venom diluted to 0.066 μg/mL in PBS was added, giving a final amount of 1 μg/well. In the no venom negative control wells, 15 μL of PBS was added. The plates were then sealed, span briefly in a Platefuge (C2000, Benchmark Scientific) and incubated at 37 °C for 25 min to allow venom-inhibitor interaction. […] Dose response plates were conducted identically and the % inhibition values at each dose were used to draw EC50 curves to estimate the EC50 value of each compound tested. All SVMP experiments were repeated independently a minimum of three times.
In data set [3] the test system is procoagulant activity of B. jararaca venom. The conditions noted are these: read-out: Coagulation assay EC50 B. jararaca; 100 ng B. jararaca venom, citrated bovine plasma; mean of n ≥ 3, range in brackets.
Protocol: as §1
In data set [4] the test system is E. romani P–I, P–II and P–III SVMPs. The note with it: gel.
Protocol: (§4) Evaluation of SVMP toxin activity of human prothrombin and fibrinogen and inhibition by test compounds was performed by SDS-PAGE degradation gel electrophoresis using venom-purified toxins. P–I, P–II and P–III SVMPs were isolated using an adaptation of the method of Howes et al. Whole E. romani venom (15 mg) was initially separated using size exclusion chromatography (SEC) on a 120 mL column of Superdex 75 (Cytiva). The P–II SVMP (22 kDa) was pure and ready to use at this stage. P–I and P–III SVMP containing peaks were separately applied to a 1 mL high resolution hydrophobic interaction chromatography (HIC) column (SOURCE 15PHE, Cytiva). […] The P–I eluted as two peaks of proteins with identical molecular weight (21 kDa) which were combined back together. The P–III-containing fraction from SEC eluted from HIC as multiple peaks of P–III SVMP isoforms, well separated from the earlier eluting L-amino acid oxidase and high molecular weight C-type lectin-like proteins. The proteins in the PIII-containing peaks were pooled back together.
Degradation of human fibrinogen was measured in a similar manner. Human fibrinogen (Merck) was added at 5 μg/reaction and incubated with the different SVMP isoforms in the presence or absence of drugs. Drug concentrations used were 10 μM for P–I and P–II SVMP and 400 nM for P–III SVMP. The reactions consisted of 200 ng SVMP isoform and the appropriate concentration of drug, which were then incubated for 30 min at 37 °C in a water bath. Five micrograms of fibrinogen were then added and the samples incubated for another hour at 37 °C, before separation by SDS-PAGE as described above.
Data set [5] concerns procoagulant venom activity (E. romani and B. jararaca). The note with it: in words; coagulation assay.
Protocol: as §1
Data set [6] can be described thus: in vitro. The conditions noted are these: human, microsomes.
Protocol: (§5) The DMPK properties data described in the manuscript were measured via a high-throughput platform by AstraZeneca (United Kingdom).
Data set [7] can be described thus: in vitro. The conditions noted are these: rat, hepatocytes.
Protocol: as §5
Data set [8] has as its system SVMP activity of Crotalus atrox venom. The note with it: read-out: Inhibition of SVMP enzymatic activity EC50 CAT; C. atrox venom; mean of n ≥ 3, range in brackets.
Protocol: as §2, §3
The test system of data set [9] is SVMP activity of Echis romani venom. The conditions noted are these: read-out: Inhibition of SVMP enzymatic activity EC50 ERO; E. romani venom; mean of n ≥ 3, range in brackets.
Protocol: as §2, §3
Data set [10] in a line: physchem. The note with it: aqueous medium at pH 7.4, pH 7.4, aqueous buffer.
Protocol: as §5
In data set [11] the test system is E. romani P–I and P–III SVMPs. The conditions noted are these: drug 2 μM, gel.
Protocol: as §4
Prothrombin degradation was measured by incubating 2 μg of human prothrombin (Hematologic Technologies INC) in the presence or absence of drug and the P–I, P–II, and P–III SVMPs. […] Briefly, drug or DMSO and 200 ng of purified SVMP isoform were incubated for 30 min at 37 °C in a water bath, after which 2 μg of human prothrombin were added and the samples incubated for another hour at 37 °C. Drug concentrations used were 2 μM for P–I and P–III SVMPs. Samples were then processed for loading onto a 4–20% SDS-PAGE gel (Biorad) and were run under reducing conditions for 45 min at 180 V. The gels were stained with Coomassie Brilliant Blue R250 and degradation profiles were visualized and images captured using a GelDoc (Biorad).
Data set [12] concerns SVMP activity of Bitis arietans venom. The note with it: read-out: Inhibition of SVMP enzymatic activity EC50 BAR; B. arietans venom; mean of n ≥ 3, range in brackets.
Protocol: as §2, §3
Data set [13] relates to SVMP activity of Calloselasma rhodostoma venom. The conditions noted are these: read-out: Inhibition of SVMP enzymatic activity EC50 CRH; C. rhodostoma venom; mean of n ≥ 3, range in brackets.
Protocol: as §2, §3
Data set [14] can be described thus: physchem. The note with it: organic solvent / aqueous solvent at pH 7.4, pH 7.4.
Protocol: as §5
Data set [15] concerns E. romani venom in human whole blood. The note with it: venom 60 ng plus drug 5 μM.
Protocol: We measured the coagulation profile of whole human blood using thromboelastography, and compared with venom stimulated, and venom and drug stimulated, clotting profiles. […] Blood samples were collected in ACD-A blood tubes. Using a ROTEM delta (Werfen) a final volume of 300 μL blood per reaction was pipetted into prewarmed cups (37 °C), with four channels per run. Whole blood was warmed for 5 min at 37 °C, during which time 12 μL of E. romani venom (5 ng/nL concentration, 60 ng dose), 15 μL of DMSO vehicle or test compounds (5 μM final concentration, 0.2% DMSO), and 20 μL of Startem reagent (CaCl2, Werfen) was prepared. The maximum incubation time of venom and inhibitors was 2 min, before 253 μL of whole blood were added and mixed before reading on the ROTEM delta. The commonly used parameters of clotting time and maximum clot firmness (MCF) were reported, from a minimum of three independent measurements per experimental group.

In brackets after ≈: the same amount, converted by molar mass.

Protocol for human plasma protein: as §5

Take `COCCOC(=O)N1CCN(S(=O)(=O)c2cc(F)c(Oc3ccc(Cl)cc3)c(F)c2)[C@@H](C(=O)NO)C1` [XL-784, reference compound]: the half-maximal effective concentration (EC50) was above 10 µM in [1]; 0.0644 µM in data set [2]; above 10 µM in [3]; 0.0506 µM in data set [8]; 0.0097 µM in [9]; 0.0129 µM in [12]. For the same compound, in [13], the EC50 came out at 0.0934 µM. In addition, the “venom-induced hemorrhage in embryos” value in the data set on E. romani venom was “no evidence of hemorrhage”. Moreover, the “protection against degradation of fibrinogen” value in data set [4] (P–I, P–II, P–III SVMPs, drug 10 μM (P–I, P–II), 400 nM (P–III)) is “protected against the degradation of fibrinogen”. Besides, the “protection against fibrinogen degradation by P–II SVMP” value in data set [4] (P–II SVMP, drug 10 μM) is reported as “inferior against P–II SVMP activity”. In addition, the “inhibition of procoagulant venom activity” value in data set [5] was “inactive”. Further, in the data set “in vitro [6]”, the microsomal CLint was 100 µL/min/mg. In addition, in the data set “in vitro [7]”, the hepatocyte CLint was 67.3 µL/min/1e6 cells. Further, in the data set with human plasma protein, the “Human Protein binding (%free)” value came out at 0.3 %free. Further, in “physchem [10]”, the concentration in solution (solubility) was 316 µM (≈ 174 µg/mL). The “protection against prothrombin degradation” value in data set [11] is recorded as “unable to protect against prothrombin degradation”. The log distribution coefficient (logD) in the data set “physchem [14]” turned out to be 3.2. For the same compound, the “reduction of venom-induced MCF” value in data set [15] turned out to be 28.9%. In addition, the “effect on clotting time” value in [15] (in words) is “no effect on clotting time”.

As usually defined, the EC50 is the concentration at which the effect is half-maximal. As a reminder, the microsomal CLint is the rate of metabolic loss divided by the concentration. By hepatocyte CLint is commonly meant the capacity of the preparation to metabolise the compound, expressed as a volume cleared per time. Read a low hepatocyte CLint as slow turnover. Usually solubility stands for the concentration that dissolves in the medium under given conditions. A word on the logD: it is lipophilicity at a set pH, counting ionised and neutral species. The low end stands for a more hydrophilic compound, the high end for a more lipophilic compound.
